This note sets out measurements from US12653815B2, “Luminally-acting N-(piperidin-4-yl)benzamide derivatives” (Takeda Pharmaceutical Company Limited, priority 2020, dated 2026).

pEC50: −log10 of the molar value.

A word on the pEC50: it is −log10 of the EC50, conventionally taken in molar units. Higher therefore signals a small EC50.

This assay deals with T1, human 5-HT4(b) receptor (Homo sapiens, UniProt Q13639).
T1 construct: overexpressing the full-length human 5-HT4(b) receptor with an N-terminal FLAG tag; FLAG (N); host or cells: CHO-K1
T1 sequence (Q13639 whole entry): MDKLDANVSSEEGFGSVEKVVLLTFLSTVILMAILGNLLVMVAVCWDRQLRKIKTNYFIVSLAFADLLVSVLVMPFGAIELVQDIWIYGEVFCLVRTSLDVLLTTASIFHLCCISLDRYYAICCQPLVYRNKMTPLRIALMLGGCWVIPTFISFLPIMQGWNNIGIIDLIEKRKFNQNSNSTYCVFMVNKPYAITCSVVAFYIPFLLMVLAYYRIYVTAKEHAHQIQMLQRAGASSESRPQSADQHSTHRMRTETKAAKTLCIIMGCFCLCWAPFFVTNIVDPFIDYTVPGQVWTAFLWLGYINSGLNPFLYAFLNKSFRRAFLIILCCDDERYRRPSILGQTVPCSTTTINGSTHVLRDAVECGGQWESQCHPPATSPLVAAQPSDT
Nature of the assay: 5-HT4(b) agonist assay (cAMP accumulation). As to conditions: CHO-K1 cells overexpressing full-length human 5-HT4(b) receptor; cAMP accumulation after 30 minutes at room temperature; 1 μM 5-HT as 100% activity. The format is cell-based. Here is the method: One may determine the activity of the compounds of Formula 1 using a variety of methods, including in vitro and in vivo methods. The ability of the example compounds to activate the 5-HT4(b) receptor may be determined using the following assay.
Chinese hamster ovary (CHO-K1) cells overexpressing the full-length human 5-HT4(b) receptor with an N-terminal FLAG tag (Multispan Inc, Hayward, CA) are cultured per the manufacturer's protocol in 1:1 DMEM/F12 (Thermo Fisher, Waltham, MA) with 10% fetal bovine serum (GE Healthcare, Pittsburgh, PA) and 10 μg/mL puromycin (Thermo Fisher, Waltham, MA), and stored in frozen aliquots to be used as assay ready cells. On the day of the assay, cells are removed from frozen storage, washed two times in 1× Kreb's Ringer Buffer (Zenbio, Research Triangle Park, NC), and re-suspended to a concentration of 4×10^6 cells/mL in 1× Kreb's Ringer Buffer. Test compound (50 nL) in 100% DMSO is acoustically dispensed in low volume, white, 384-well polypropylene plates (Corning, Tewksbury, MA), followed by the addition of 4×10^4 cells per well in a total volume of 10 μL. Cells are incubated with test compound for 30 minutes at room temperature in the dark, and cAMP accumulation is measured using the Cisbio HiRange cAMP assay kit (Bedford, MA) per the manufacturer's protocol. Anti-cAMP antibody and d2-cAMP tracer reagents diluted in lysis/detection buffer are incubated in the dark for 1 hour, and results are measured on a Pherastar plate reader (BMG Labtech, Ortenberg, Germany). Data are normalized using 1 μM 5-HT (Sigma Aldrich, St. Louis, MO) as 100% activity, and DMSO alone as 0% activity.
The ability of the example compounds to activate the 5-HT4(b) receptor was evaluated using the assay described in the Biological Activity section. Table 1, below, lists EC50 from the 5-HT4(b) agonist assay for each of the example compounds, where smaller EC50 values represent higher potency.
For orientation: Cyclic AMP is a second messenger, typically raised through Gs and lowered through Gi signalling.
In turn, `COc1cc(N)c(Cl)cc1C(=O)N[C@@H]1CCN(CCCCCC(=O)NC2CCN(CCCCCC(=O)NC[C@H](O)[C@@H](O)[C@H](O)[C@H](O)CO)CC2)C[C@@H]1OC` [Example 9, 4-amino-5-chloro-2-methoxy-N-((3S,4R)-3-methoxy-1-(6-oxo-6-((1-(6-oxo-6-(((2S,3R,4R,5R)-2,3,4,5,6-pentahydroxyhexyl)amino)hexyl)piperidinyl)amino)hexyl)piperidin-4-yl)benzamide] gave a negative logarithm of the EC50 (pEC50) of 8.09.
The value for `COc1cc(N)c(Cl)cc1C(=O)N[C@@H]1CCN(CCCCCC(=O)N(C)C2CCN(CCCCCCCC(=O)NC[C@H](O)[C@@H](O)[C@H](O)[C@H](O)CO)CC2)C[C@@H]1OC` [Example 10, 4-amino-5-chloro-2-methoxy-N-((3S,4R)-3-methoxy-1-(6-(methyl(1-(8-oxo-8-(((2S,3R,4R,5R)-2,3,4,5,6-pentahydroxyhexyl)amino)octyl)piperidin-4-yl)amino)-6-oxohexyl)piperidin-4-yl)benzamide] was 7.58.
The value for `COc1cc(N)c(Cl)cc1C(=O)N[C@@H]1CCN(CCCCCC(=O)N(C)C2CCN(CCCCCC(=O)NC[C@H](O)[C@@H](O)[C@H](O)[C@H](O)CO)CC2)C[C@@H]1OC` [Example 11, 4-amino-5-chloro-2-methoxy-N-((3S,4R)-3-methoxy-1-(6-(methyl(1-(6-oxo-6-(((2S,3R,4R,5R)-2,3,4,5,6-pentahydroxyhexyl)amino)hexyl)piperidinyl)amino)-6-oxohexyl)piperidin-4-yl)benzamide] was 7.85.
As for `COc1cc(N)c(Cl)cc1C(=O)N[C@@H]1CCN(CCCCCC(=O)N[C@@H]2CCCN(CCCCCCCC(=O)NC[C@H](O)[C@@H](O)[C@H](O)[C@H](O)CO)C2)C[C@@H]1OC` [Example 12, 4-amino-5-chloro-2-methoxy-N-((3S,4R)-3-methoxy-1-(6-oxo-6-(((R)-1-(8-oxo-8-(((2S,3R,4R,5R)-2,3,4,5,6-pentahydroxyhexyl)amino)octyl)piperidin-3-yl)amino)hexyl)piperidin-4-yl)benzamide], the negative-log EC50 (pEC50) was 7.84.
The molecule `COc1cc(N)c(Cl)cc1C(=O)N[C@@H]1CCN(CCCCCC(=O)N[C@@H]2CCCN(CCCCCC(=O)NC[C@H](O)[C@@H](O)[C@H](O)[C@H](O)CO)C2)C[C@@H]1OC` [Example 13, 4-amino-5-chloro-2-methoxy-N-((3S,4R)-3-methoxy-1-(6-oxo-6-(((R)-1-(6-oxo-6-(((2S,3R,4R,5R)-2,3,4,5,6-pentahydroxyhexyl)amino)hexyl)piperidin-3-yl)amino)hexyl)piperidin-4-yl)benzamide] gave a negative logarithm of the EC50 (pEC50) of 7.89.
As to `COc1cc(N)c(Cl)cc1C(=O)N[C@@H]1CCN(CCCCCC(=O)N(C)[C@@H]2CCCN(CCCCCCCC(=O)NC[C@H](O)[C@@H](O)[C@H](O)[C@H](O)CO)C2)C[C@@H]1OC` [Example 14, 4-amino-5-chloro-2-methoxy-N-((3S,4R)-3-methoxy-1-(6-(methyl((R)-1-(8-oxo-8-(((2S,3R,4R,5R)-2,3,4,5,6-pentahydroxyhexyl)amino)octyl)piperidin-3-yl)amino)-6-oxohexyl)piperidin-4-yl)benzamide], the pEC50 is 7.77.
`COc1cc(N)c(Cl)cc1C(=O)N[C@@H]1CCN(CCCCCC(=O)N(C)[C@@H]2CCCN(CCCCCC(=O)NC[C@H](O)[C@@H](O)[C@H](O)[C@H](O)CO)C2)C[C@@H]1OC` [Example 15, 4-amino-5-chloro-2-methoxy-N-((3S,4R)-3-methoxy-1-(6-(methyl((R)-1-(6-oxo-6-(((2S,3R,4R,5R)-2,3,4,5,6-pentahydroxyhexyl)amino)hexyl)piperidin-3-yl)amino)-6-oxohexyl)piperidin-4-yl)benzamide] showed a pEC50 of 7.51.
The value for `COc1cc(N)c(Cl)cc1C(=O)N[C@@H]1CCN(CCCCCC(=O)N(C)CCCCCCCC(=O)NC[C@H](O)[C@@H](O)[C@H](O)[C@H](O)CO)C[C@@H]1OC` [Example 16, 4-amino-5-chloro-2-methoxy-N-((3S,4R)-3-methoxy-1-(6-(methyl(8-oxo-8-(((2S,3R,4R,5R)-2,3,4,5,6-pentahydroxyhexyl)amino)octyl)amino)-6-oxohexyl)piperidin-4-yl)benzamide] was 7.36.
With `COc1cc(N)c(Cl)cc1C(=O)N[C@@H]1CCN(CCOCCC(=O)NCCCCCCCC(=O)NC[C@H](O)[C@@H](O)[C@H](O)[C@H](O)CO)C[C@@H]1OC` [Example 17, 4-amino-5-chloro-2-methoxy-N-((3S,4R)-3-methoxy-1-(2-(3-oxo ((8-oxo-8-(((2S,3R,4R,5R)-2,3,4,5,6-pentahydroxyhexyl)amino)octyl)amino)propoxy)ethyl)piperidin-4-yl)benzamide] the figure was 6.70; with `COc1cc(N)c(Cl)cc1C(=O)N[C@@H]1CCN(C(C)CCCCC(=O)NCCCCCCCC(=O)NC[C@H](O)[C@@H](O)[C@H](O)[C@H](O)CO)C[C@@H]1OC` (stereo partly drawn) [Example 18, 4-amino-5-chloro-2-methoxy-N-((3S,4R)-3-methoxy-1-(7-oxo-7-((8-oxo-8-(((2S,3R,4R,5R)-2,3,4,5,6-pentahydroxyhexyl)amino)octyl)amino)heptan-2-yl)piperidin-4-yl)benzamide], 6.82.
The value for `COc1cc(N)c(Cl)cc1C(=O)N[C@@H]1CCN(CC(C)CCCC(=O)NCCCCCCCC(=O)NC[C@H](O)[C@@H](O)[C@H](O)[C@H](O)CO)C[C@@H]1OC` (stereo partly drawn) [Example 19, 4-amino-5-chloro-2-methoxy-N-((3S,4R)-3-methoxy-1-(2-methyloxo-6-((8-oxo-8-(((2S,3R,4R,5R)-2,3,4,5,6-pentahydroxyhexyl)amino)octyl)amino)hexyl)piperidin-4-yl)benzamide] was 7.11; that for `COc1cc(N)c(Cl)cc1C(=O)N[C@@H]1CCN(CCC(C)CCC(=O)NCCCCCCCC(=O)NC[C@H](O)[C@@H](O)[C@H](O)[C@H](O)CO)C[C@@H]1OC` (stereo partly drawn) [Example 20, 4-amino-5-chloro-2-methoxy-N-((3S,4R)-3-methoxy-1-(3-methyl-6-oxo-6-((8-oxo-8-(((2S,3R,4R,5R)-2,3,4,5,6-pentahydroxyhexyl)amino)octyl)amino)hexyl)piperidin-4-yl)benzamide] was 7.24; that for `COc1cc(N)c(Cl)cc1C(=O)N[C@@H]1CCN(CCCC(C)CC(=O)NCCCCCCCC(=O)NC[C@H](O)[C@@H](O)[C@H](O)[C@H](O)CO)C[C@@H]1OC` (stereo partly drawn) [Example 21, 4-amino-5-chloro-2-methoxy-N-((3S,4R)-3-methoxy-1-(4-methyl-6-oxo-6-((8-oxo-8-(((2S,3R,4R,5R)-2,3,4,5,6-pentahydroxyhexyl)amino)octyl)amino)hexyl)piperidin-4-yl)benzamide] was 7.56.
`COc1cc(N)c(Cl)cc1C(=O)N[C@@H]1CCN(CCCCCC(=O)NCCCCCCCC(=O)N(CCO)C[C@H](O)[C@@H](O)[C@H](O)[C@H](O)CO)C[C@@H]1OC` [Example 22, 4-amino-5-chloro-N-((3 S,4R)-1-(6-((8-((2-hydroxyethyl)((2S,3R,4R,5R)-2,3,4,5,6-pentahydroxyhexyl)amino)-8-oxooctyl)amino)-6-oxohexyl)-3-methoxypiperidin-4-yl)-2-methoxybenzamide] showed a pEC50 of 7.72.
`COc1cc(N)c(Cl)cc1C(=O)N[C@@H]1CCN(CCCCCC(=O)NCCCCCCCC(=O)NCCS(=O)(=O)O)C[C@@H]1OC` [Example 23, 2-(8-(6-((3S,4R)-4-(4-amino-5-chloro-2-methoxybenzamido)-3-methoxypiperidin-1-yl)hexanamido)octanamido)ethane-1-sulfonic acid] gave a pEC50 of 7.25. Against the preceding molecule, the pEC50 is 0.47 log units lower.
The value for `COc1cc(N)c(Cl)cc1C(=O)N[C@@H]1CCN(CCCCCC(=O)NCCCCCCCC(=O)N[C@H]2C[C@](O)(CO)[C@@H](O)[C@H](O)[C@H]2O)C[C@@H]1OC` [Example 24, 4-amino-5-chloro-2-methoxy-N-((3S,4R)-3-methoxy-1-(6-oxo ((8-oxo-8-(((1S,2S,3R,4S,5S)-2,3,4,5-tetrahydroxy (hydroxymethyl)cyclohexyl)amino)octyl)amino)hexyl)piperidin-4-yl)benzamide] was 7.54.
With `COc1cc(N)c(Cl)cc1C(=O)N[C@@H]1CCN(CCCCCC(=O)NCCCCCCCC(=O)NCCP(=O)(O)O)C[C@@H]1OC` [Example 25, (2-(8-(6-((3S,4R)-4-(4-amino-5-chloro-2-methoxybenzamido)-3-methoxypiperidin-1-yl)hexanamido)octanamido)ethyl)phosphonic acid] the figure was 6.94; with `COc1cc(N)c(Cl)cc1C(=O)N[C@@H]1CCN(CCCCCC(=O)NCCCCCCCC(=O)N(CCP(=O)(O)O)C[C@H](O)[C@@H](O)[C@H](O)[C@H](O)CO)C[C@@H]1OC` [Example 26, (2-(8-(6-((3S,4R)-4-(4-amino-5-chloro-2-methoxybenzamido)-3-methoxypiperidin-1-yl)hexanamido)-N-((2S,3R,4R,5R)-2,3,4,5,6-pentahydroxyhexyl)octanamido)ethyl)phosphonic acid], 6.88.
